According to PubChem BioAssay AID248 (DTP/NCI, 2004):
Where “and” joins values, the source holds several entries; their conditions need not be identical. Equal entries are not always repeated. Inconclusive results and toxic doses are left out. Cut-off read from the data, not from the text of the source: active = T/C of 150% or more; inactive = T/C below 125%.

System: L1210 leukemia ip in BDF1 mice, survival T/C
Test: NCI In Vivo Anticancer Drug Screen. Data for tumor model L1210 Leukemia (intraperitoneal) in B6D2F1 (BDF1) mice
Details: endpoint: mean survival time, higher = longer survival
Outline: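 Value reflects the ratio of survival in compound-treated mice to survival in vehicle-treated controls, with both groups carrying the same transplanted tumor.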

[1] = dose: 100.0 mg/kg/injection, schedule: Q04DX003 (ip), vehicle: Klucel (hydroxypropylcellulose) (HPC)
[2] = dose: 200.0 mg/kg/injection, schedule: Q01DX009 (ip), vehicle: Klucel (hydroxypropylcellulose) (HPC)
[3] = dose: 200.0 mg/kg/injection, schedule: Q04DX003 (ip), vehicle: Klucel (hydroxypropylcellulose) (HPC)
[4] = dose: 400.0 mg/kg/injection, schedule: Q01DX009 (ip), vehicle: Klucel (hydroxypropylcellulose) (HPC)
[5] = dose: 400.0 mg/kg/injection, schedule: Q04DX003 (ip), vehicle: Klucel (hydroxypropylcellulose) (HPC)
[6] = dose: 100.0 mg/kg/injection, schedule: Q01DX009 (ip), vehicle: saline sonified
[7] = dose: 400.0 mg/kg/injection, schedule: Q01DX009 (ip), vehicle: saline sonified
[8] = dose: 50.0 mg/kg/injection, schedule: Q01DX009 (ip), vehicle: Klucel (hydroxypropylcellulose) (HPC)
[9] = dose: 100.0 mg/kg/injection, schedule: Q01DX009 (ip), vehicle: Klucel (hydroxypropylcellulose) (HPC)
[10] = dose: 100.0 mg/kg/injection, schedule: Q01DX001 (ip), vehicle: Klucel (hydroxypropylcellulose) (HPC)
[11] = dose: 200.0 mg/kg/injection, schedule: Q01DX001 (ip), vehicle: Klucel (hydroxypropylcellulose) (HPC)
[12] = dose: 100.0 mg/kg/injection, schedule: Q01DX001 (ip), vehicle: carboxymethylcellulose (CMC)
[13] = dose: 200.0 mg/kg/injection, schedule: Q01DX001 (ip), vehicle: carboxymethylcellulose (CMC)
[14] = dose: 100.0 mg/kg/injection, schedule: Q01DX009 (ip), vehicle: saline with Tween-80
[15] = dose: 200.0 mg/kg/injection, schedule: Q01DX009 (ip), vehicle: saline with Tween-80
[16] = dose: 100.0 mg/kg/injection, schedule: Q04DX003 (ip), vehicle: saline
[17] = dose: 100.0 mg/kg/injection, schedule: Q01DX009 (ip), vehicle: saline
[18] = dose: 200.0 mg/kg/injection, schedule: Q01DX009 (ip), vehicle: saline
[19] = dose: 400.0 mg/kg/injection, schedule: Q01DX009 (ip), vehicle: saline
[20] = dose: 100.0 mg/kg/injection, schedule: Q04DX002 (ip), vehicle: Klucel (hydroxypropylcellulose) (HPC)
[21] = dose: 200.0 mg/kg/injection, schedule: Q04DX002 (ip), vehicle: Klucel (hydroxypropylcellulose) (HPC)
[22] = dose: 400.0 mg/kg/injection, schedule: Q04DX002 (ip), vehicle: Klucel (hydroxypropylcellulose) (HPC)

Measured: T/C

C=CC1=CC(=O)OC1=O
inactive: dose: 10.0 mg/kg/injection, schedule: Q01DX001 (ip), vehicle: saline 88 % of control

CCN(C(=O)Nc1ccc(OC)cc1)c1ccccc1C
inactive: [1] 99 % of control | [2] 96 % of control | [3] 96 % of control | [4] 102 % of control | [5] 96 % of control

O=[N+]([O-])c1ccc(S(=O)Cc2ccccc2)c2c1no[n+]2[O-] (stereo not given)
inactive: dose: 25.0 mg/kg/injection, schedule: Q04DX003 (ip), vehicle: saline with Tween-80 100 % of control

CN(N=O)C(=O)NC1C(CO)OC2OC(C)(C)OC21 (stereo not given)
inactive: [6] 124 % of control | [7] 119 % of control

CC(=O)c1ccc(NC(N)=S)cc1
inactive: dose: 5.0 mg/kg/injection, schedule: Q01DX009 (ip), vehicle: saline with Tween-80 88 % of control | dose: 10.0 mg/kg/injection, schedule: Q01DX009 (ip), vehicle: saline with Tween-80 98 % of control | dose: 20.0 mg/kg/injection, schedule: Q01DX009 (ip), vehicle: saline with Tween-80 103 % of control and 90 % of control | dose: 40.0 mg/kg/injection, schedule: Q01DX009 (ip), vehicle: saline with Tween-80 97 % of control and 104 % of control | dose: 80.0 mg/kg/injection, schedule: Q01DX009 (ip), vehicle: saline with Tween-80 91 % of control

O=c1[nH]cnc2sc3c(c12)CCCC3
inactive: [6] 94 % of control | dose: 100.0 mg/kg/injection, schedule: Q04DX003 (ip), vehicle: saline sonified 92 % of control | dose: 200.0 mg/kg/injection, schedule: Q01DX009 (ip), vehicle: saline sonified 116 % of control | dose: 200.0 mg/kg/injection, schedule: Q04DX003 (ip), vehicle: saline sonified 98 % of control | [7] 100 % of control | dose: 400.0 mg/kg/injection, schedule: Q04DX003 (ip), vehicle: saline sonified 101 % of control

CC(=O)NN(c1ccccc1)c1ccccc1
inactive: [8] 98 % of control | [9] 104 % of control | [1] 93 % of control | [2] 96 % of control | [3] 86 % of control | [5] 91 % of control

O=c1nc(NCCc2cnc[nH]2)nc(NCCc2cnc[nH]2)[nH]1
inactive: [8] 100 % of control | [9] 100 % of control | [2] 92 % of control

CC12OC1(C)C1(C)C3(C)OC3(C)C21C (stereo not given)
inactive: [8] 97 % of control | [10] 100 % of control | [9] 96 % of control | [11] 100 % of control | [2] 96 % of control

CC(=O)N(c1ccccc1)c1ccc([N+](=O)[O-])cc1[N+](=O)[O-]
inactive: [12] 107 % of control | dose: 177.0 mg/kg/injection, schedule: Q01DX001 (ip), vehicle: carboxymethylcellulose (CMC) 94 % of control and 115 % of control | [13] 96 % of control | dose: 266.0 mg/kg/injection, schedule: Q01DX001 (ip), vehicle: carboxymethylcellulose (CMC) 97 % of control and 103 % of control | dose: 400.0 mg/kg/injection, schedule: Q01DX001 (ip), vehicle: carboxymethylcellulose (CMC) 97 % of control and 100 % of control | dose: 600.0 mg/kg/injection, schedule: Q01DX001 (ip), vehicle: carboxymethylcellulose (CMC) 100 % of control and 105 % of control

N#CC(C#N)C1c2ccccc2Nc2ccccc21
inactive: dose: 12.5 mg/kg/injection, schedule: Q01DX009 (ip), vehicle: saline with Tween-80 89 % of control | dose: 25.0 mg/kg/injection, schedule: Q01DX009 (ip), vehicle: saline with Tween-80 89 % of control | dose: 50.0 mg/kg/injection, schedule: Q01DX009 (ip), vehicle: saline with Tween-80 98 % of control and 89 % of control

CCOC(=O)C(=O)Cc1cnc2ccccc2n1
inactive: [9] 113 % of control | [1] 97 % of control | [2] 94 % of control | [3] 96 % of control | [4] 92 % of control | [5] 100 % of control

C=CCc1ccccc1OC
inactive: [14] 102 % of control | [15] 95 % of control

COc1ccc(S(=O)(=O)Nc2cc(Cl)ccc2Cl)cc1
inactive: [14] 92 % of control | [15] 103 % of control | dose: 400.0 mg/kg/injection, schedule: Q01DX009 (ip), vehicle: saline with Tween-80 95 % of control

CCCCCC/C=C1/CCC/C1=N\NC(=O)c1ccc[n+](C)c1
inactive: dose: 25.0 mg/kg/injection, schedule: Q04DX003 (ip), vehicle: saline 100 % of control | dose: 50.0 mg/kg/injection, schedule: Q04DX003 (ip), vehicle: saline 101 % of control | [16] 100 % of control

OC1(O)COC(c2ccccc2)OC1
inactive: [17] 96 % of control | [1] 105 % of control | [18] 102 % of control | [3] 101 % of control | [19] 93 % of control | [5] 99 % of control

[N-]=[N+]=NC(=O)C1(Br)CCC2c3ccccc3C([N+](=O)[O-])(C1)c1ccccc12 (stereo not given)
inactive: [16] 101 % of control | dose: 200.0 mg/kg/injection, schedule: Q04DX003 (ip), vehicle: saline 98 % of control | dose: 400.0 mg/kg/injection, schedule: Q04DX003 (ip), vehicle: saline 93 % of control

NS(=O)(=O)Cc1ccccc1
inactive: dose: 25.0 mg/kg/injection, schedule: Q01DX009 (ip), vehicle: saline 92 % of control | dose: 50.0 mg/kg/injection, schedule: Q01DX009 (ip), vehicle: saline 94 % of control | [17] 100 % of control

CCOC(=O)C1CC2C=CC1C2 (stereo not given)
inactive: [9] 106 % of control | [1] 111 % of control | [2] 101 % of control | [3] 100 % of control | [4] 103 % of control | [5] 105 % of control

CC(=O)Oc1cccc([N+](=O)[O-])c1
inactive: [20] 107 % of control | [21] 100 % of control | [22] 92 % of control

CCOC(=O)C1C(C(=O)c2ccc(C)cc2)C2(Cl)C(Cl)=C(Cl)C1(Cl)C2(Cl)Cl (stereo not given)
inactive: [17] 96 % of control | [18] 91 % of control | [19] 98 % of control

C=COC(=O)NC(Cc1ccccc1)C(=O)O (stereo not given)
inactive: dose: 100.0 mg/kg/injection, schedule: Q01DX001 (ip), vehicle: saline 97 % of control | dose: 200.0 mg/kg/injection, schedule: Q01DX001 (ip), vehicle: saline 89 % of control

CCCCCCCCCCCCSCCSCCSCCCCCCCCCCCC
inactive: [1] 93 % of control | [3] 92 % of control | [5] 98 % of control

COc1ccccc1NC(=S)Nc1ccccc1
inactive: [20] 97 % of control | [21] 101 % of control | [22] 108 % of control

Cc1ccnc(NS(=O)(=O)c2ccc(N=Nc3cc(N=Nc4ccccc4)c(N)nc3N)cc2)n1
inactive: [12] 105 % of control | [13] 102 % of control

CCOc1ccc(NC(=O)N/N=C(\C)CC(C)C)cc1
inactive: [10] 93 % of control | [9] 99 % of control and 102 % of control | [20] 95 % of control and 89 % of control | [11] 89 % of control | [2] 96 % of control and 101 % of control | [21] 103 % of control and 110 % of control | dose: 400.0 mg/kg/injection, schedule: Q01DX001 (ip), vehicle: Klucel (hydroxypropylcellulose) (HPC) 91 % of control | [4] 95 % of control and 102 % of control | [22] 104 % of control and 92 % of control
